This is an account of results in patent publication US5462926A (Biomeasure, Inc., priority 1993, dated 1995).

Test [1] concerns the target T1, GRP receptors on rat pancreatic acini (Rattus norvegicus, UniProt P52500).
T1 construct: from tissue; host or cells: dispersed pancreatic acini
Briefly: Binding of 125I-[Tyr4]bombesin to pancreatic acini. Conditions: read-out: Ki 125I-[Tyr4]Bn Binding, GRP Receptor, Rat Pancreatic Acini; Ki by Cheng method.
Source text: Nonsaturable binding was<10% of total binding in all experiments.

Test [2] addresses T2, mu opioid receptors (Rattus norvegicus, UniProt P33535).
T2 construct: rat forebrain (TRH, mu and delta opioid membrane assays); from tissue; host or cells: rat forebrain membranes
Briefly: Mu opioid membrane assay, [3H]DAGO, rat forebrain membranes. It is filed as binding. The settings on record: Cheng method; unit inferred; read-out: affinity, [3H]DAGO, Rat Forebrain membranes (mu opioid receptors).

Test [3] has as its target T3, GRP receptor (Rattus norvegicus, UniProt P52500). Briefly: Amylase release from rat pancreatic acini (alone or Bn-stimulated). Conditions: for Amylase Release, analog Alone (10 μM): analog 10 μM alone, control 4 ± 1; for Amylase Release, analog Plus Bn (0.3 nM): analog 10 μM plus Bn 0.3 nM, Bn without analog 15 ± 1; for IC50: read-out: IC50 Amylase Release, GRP Receptor, Rat Pancreatic Acini. Also noted: from tissue; host or cells: dispersed pancreatic acini. It is filed as cell-based. The essentials: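 Rat pancreatic acini incubated 30 min at 37° C without additives or with somatostatin octapeptide analog, Bn, NMB or combinations. Amylase release expressed as percent of total cellular amylase released during incubation; for inhibition, somatostatin analog (10 μM) tested on 0.3 nM Bn-stimulated release.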

In test [4] the target is T3, GRP receptor. The experiment in a line: GRP membrane receptor assay, 125I-[Tyr4]Bn, AR 42J cell membranes. It is filed as binding. Further details: endogenous in cells; host or cells: rat AR 42J pancreatic acinar tumor cell membranes. Conditions: read-out: affinity, 125I-[Tyr4]Bn, AR 42J Cell Membranes (GRP receptors); Cheng method; unit inferred.
Test [5] concerns the target T4, somatostatin receptors (Rattus norvegicus, UniProt P30680).
T4 construct: endogenous in cells; host or cells: rat AR 42J pancreatic acinar tumor cell membranes
Briefly: Somatostatin membrane receptor assay, 125I-[Tyr11]SS-14, AR 42J cell membranes. It is filed as binding. The settings on record: Cheng method; table prints no unit (b360 gives nM for a Table 4 value); read-out: affinity, 125I-[Tyr11]SS-14, AR 42J Cell Membranes (somatostatin receptors).

In test [6] the target is T5, rat NMB receptor (Rattus norvegicus, UniProt P24053).
T5 construct: a full length NMB-preferring bombesin receptor clone generated from rat esophagus; expressed in transfected cells
T5 sequence (P24053 1-390): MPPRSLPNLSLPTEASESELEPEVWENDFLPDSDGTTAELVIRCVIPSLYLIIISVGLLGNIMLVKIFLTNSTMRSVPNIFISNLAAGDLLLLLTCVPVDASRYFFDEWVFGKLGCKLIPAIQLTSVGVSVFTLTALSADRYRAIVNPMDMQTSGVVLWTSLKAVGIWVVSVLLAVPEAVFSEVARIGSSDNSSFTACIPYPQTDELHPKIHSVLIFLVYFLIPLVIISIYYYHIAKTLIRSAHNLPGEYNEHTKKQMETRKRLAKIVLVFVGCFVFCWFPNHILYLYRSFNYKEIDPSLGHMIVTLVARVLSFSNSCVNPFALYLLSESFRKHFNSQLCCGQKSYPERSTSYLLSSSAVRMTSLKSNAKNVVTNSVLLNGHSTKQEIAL
The experiment in a line: Binding of 125I-[D-Tyr0]NMB to NMB-R transfected BALB 3T3 cells. Conditions: for Ki: NMB-R transfected BALB 3T3 cells, Ki by Cheng method, read-out: Ki 125I-NMB Binding, NMB Receptor, Transfected Cells; for fold decrease in NMB receptor affinity compared with cyclo SS-octa (#1): structure-function comparison from Table 1.

Test [7] concerns the target T6, NMB receptor (Rattus norvegicus, UniProt P24053).
T6 sequence (P24053 1-390): T5 sequence (P24053 1-390)
The experiment in a line: NMB membrane receptor assay, 125I-NMB, rat olfactory bulb membranes. Further details: Membranes were prepared from rat olfactory bulb (NMB membrane receptor assay); from tissue; host or cells: rat olfactory bulb membranes. It is filed as binding. The settings on record: for Ki: Cheng method, unit inferred, read-out: affinity, 125I-NMB, Rat Olfactory bulb membranes (neuromedin B receptors).

In test [8] the target is T6, NMB receptor. Briefly: [3H]inositol phosphates in NMB-R transfected cells (alone or NMB-stimulated). The settings on record: NMB-R transfected cells; for IC50 / effect at 10 μM on NMB-stimulated increase in [3H]IP: 3 nM NMB; for [3H]IP, analog Alone (10 μM): analog 10 μM alone, control 13 ± 3; for [3H]IP, analog Plus NMB (3 nM): analog 10 μM plus NMB 3 nM, NMB without analog 186 ± 58. It is filed as cell-based. Further details: a full length NMB-preferring bombesin receptor clone generated from rat esophagus; expressed in transfected cells. The essentials: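 BALB 3T3 cells stably expressing rat NMB receptor, labelled 48 h at 37 °C with 100 μCi/ml myo-[3H]inositol, preincubated 15 min in buffer with 10 mM LiCl, then exposed 60 min at 37 °C to agonists or to 3 nM NMB plus antagonists. Total [3H]inositol phosphates isolated by anion-exchange chromatography.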

Setting [9] is: read-out: IC50 NMB-stimulated [3H]IP, NMB Receptor, Transfected Cells.
[10] abbreviates: read-out: IC50 NMB-stimulated [3H]IP, Transfected Cells (values in μM).

Where two headings read alike, the source gives them in different places. Where a SMILES comes first, the peptide text is derived from it. Bridges are numbered along the chain shown (N, C = ends). [ ]: non-standard residue; d: D form. 2Nal = N[C@@H](Cc1ccc2ccccc2c1)C(=O)O; d2Nal = N[C@H](Cc1ccc2ccccc2c1)C(=O)O

T3 sequence (P52500 whole entry): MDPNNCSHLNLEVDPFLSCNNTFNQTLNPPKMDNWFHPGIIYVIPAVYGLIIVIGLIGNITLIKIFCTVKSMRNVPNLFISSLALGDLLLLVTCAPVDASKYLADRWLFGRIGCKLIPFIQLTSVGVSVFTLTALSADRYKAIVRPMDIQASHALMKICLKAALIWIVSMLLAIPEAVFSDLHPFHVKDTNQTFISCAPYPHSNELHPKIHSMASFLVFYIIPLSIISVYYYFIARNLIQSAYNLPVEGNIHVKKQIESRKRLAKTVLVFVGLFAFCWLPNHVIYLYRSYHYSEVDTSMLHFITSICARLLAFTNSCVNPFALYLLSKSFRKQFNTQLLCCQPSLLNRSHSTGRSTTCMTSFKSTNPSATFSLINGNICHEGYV
T1 sequence (P52500 whole entry): as above
T2 sequence (P33535 whole entry): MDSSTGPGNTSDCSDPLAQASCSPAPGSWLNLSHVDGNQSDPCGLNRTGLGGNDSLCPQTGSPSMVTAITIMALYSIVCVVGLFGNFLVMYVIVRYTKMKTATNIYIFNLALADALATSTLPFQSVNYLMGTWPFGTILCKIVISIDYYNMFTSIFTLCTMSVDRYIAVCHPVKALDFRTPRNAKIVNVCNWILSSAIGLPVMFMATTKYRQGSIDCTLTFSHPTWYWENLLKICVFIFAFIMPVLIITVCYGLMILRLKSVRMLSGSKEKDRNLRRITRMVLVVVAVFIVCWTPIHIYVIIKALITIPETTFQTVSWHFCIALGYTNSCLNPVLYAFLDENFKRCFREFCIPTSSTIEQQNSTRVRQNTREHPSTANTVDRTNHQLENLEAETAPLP
T4 sequence (P30680 whole entry): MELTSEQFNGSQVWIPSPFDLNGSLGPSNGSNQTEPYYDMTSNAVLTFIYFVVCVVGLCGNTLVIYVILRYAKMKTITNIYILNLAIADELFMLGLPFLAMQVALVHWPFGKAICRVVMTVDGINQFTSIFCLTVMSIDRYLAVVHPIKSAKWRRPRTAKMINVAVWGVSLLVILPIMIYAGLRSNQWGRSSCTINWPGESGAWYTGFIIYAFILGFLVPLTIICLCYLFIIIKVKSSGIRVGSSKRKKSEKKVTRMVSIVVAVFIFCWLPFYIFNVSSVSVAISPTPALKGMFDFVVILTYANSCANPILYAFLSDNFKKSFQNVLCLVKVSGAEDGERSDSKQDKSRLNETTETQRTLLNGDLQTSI

Regarding `NCCCC[C@@H]1NC(=O)[C@@H](Cc2c[nH]c3ccccc23)NC(=O)[C@H](Cc2ccc(O)cc2)NC(=O)[C@@H](NC(=O)[C@H](N)Cc2ccc3ccccc3c2)CSSC[C@@H](C(=O)N[C@@H](Cc2ccc3ccccc3c2)C(N)=O)NC(=O)[C@H](Cc2ccccc2)NC1=O` [Analog #13, H2 -D-Nal-Cys-Tyr-D-Trp-Lys-Phe-Cys-Nal-NH2] (H-[d2Nal]CY[dW]KFC[2Nal]-NH2; disulfide 2-7), the Ki was over 10000 nM in test [1]; 1640 nM in test [2]; 2150 ± 200 nM in test [4]; 194 ± 27 nM in test [5]; 397 ± 72 nM in test [6]; 270 ± 90 nM in test [7]. Moreover, the “Amylase Release, analog Alone (10 μM)” value in test [3] stood at 3 ± 1 % total. The “Amylase Release, analog Plus Bn (0.3 nM)” value in test [3] came out at 14 ± 1 % total. For the same molecule, the IC50 in test [3] is over 10000 nM; in test [8] (setting [9]), 1.17 ± 0.114 µM; in test [8] (setting [10]) it was 1.2 to 1.8 µM. In addition, in test [6] (NMB-R transfected cells), the “fold by which cyclo SS-octa is more potent than the analog, 125I-NMB binding” value was determined as 2 fold. For the same molecule, the “fold decrease in NMB receptor affinity compared with cyclo SS-octa (#1)” value in test [6] was 2 to 3 fold. In addition, in test [8], the “effect at 10 μM on NMB-stimulated increase in [3H]IP” value is given as “completely inhibited”. For the same molecule, the “[3H]IP, analog Alone (10 μM)” value in test [8] is reported as 10 ± 1 dym × 10^3. In test [8], the “[3H]IP, analog Plus NMB (3 nM)” value is given as 9 ± 4 dym × 10^3.

For the molecule `CC(C)[C@@H]1NC(=O)[C@H](CCCCN)NC(=O)[C@@H](Cc2c[nH]c3ccccc23)NC(=O)[C@H](Cc2ccc(O)cc2)NC(=O)[C@@H](NC(=O)[C@H](N)Cc2ccc3ccccc3c2)CSSC[C@H](C(=O)N[C@@H](Cc2ccc3ccccc3c2)C(N)=O)NC1=O` [Analog #11, H2 -D-Nal-Cys-Tyr-D-Trp-Lys-Val-D-Cys-Nal-NH2] (H-[d2Nal]CY[dW]KV[dC][2Nal]-NH2; disulfide 2-7), the Ki in test [1] was over 10000 nM; in test [2], over 10000 nM; in test [4], 7620 ± 1260 nM; in test [5] it was 48 ± 3 nM; in test [6], 1080 ± 199 nM; in test [7], 230 ± 70 nM. The “Amylase Release, analog Alone (10 μM)” value in test [3] is recorded as 2 ± 1 % total. Besides, the “Amylase Release, analog Plus Bn (0.3 nM)” value in test [3] is 14 ± 1 % total. The IC50 in test [3] is over 10000 nM; in test [8] (setting [9]), 1.43 ± 0.119 µM; in test [8] (setting [10]) it was 1.2 to 1.8 µM. Further, in test [6], the “fold decrease in NMB receptor affinity compared with cyclo SS-octa (#1)” value stood at 5 fold. Also, in test [7] (membranes, Table 4), the “fold greater affinity for NMB receptors than mu opioid receptors” value is listed as over 50 fold. Also, the “effect at 10 μM on NMB-stimulated increase in [3H]IP” value in test [8] is “completely inhibited”. Besides, the “[3H]IP, analog Alone (10 μM)” value in test [8] is 10 ± 1 dym × 10^3. Moreover, the “[3H]IP, analog Plus NMB (3 nM)” value in test [8] is given as 7 ± 4 dym × 10^3.

In the case of `CC(C)[C@@H]1NC(=O)[C@H](CCCCN)NC(=O)[C@@H](Cc2c[nH]c3ccccc23)NC(=O)[C@H](Cc2ccc(O)cc2)NC(=O)[C@@H](NC(=O)[C@@H](N)Cc2ccc3ccccc3c2)CSSC[C@@H](C(=O)N[C@H](Cc2ccc3ccccc3c2)C(N)=O)NC1=O` [Analog #9, H2 -Nal-Cys-Tyr-D-Trp-Lys-Val-Cys-D-Nal-NH2] (H-[2Nal]CY[dW]KVC[d2Nal]-NH2; disulfide 2-7), the Ki in test [1] is over 10000 nM; in test [2], 1160 nM; in test [4], 1540 ± 180 nM; in test [5], 2.8 ± 0.7 nM; in test [6], 1160 ± 229 nM; in test [7], 590 ± 170 nM. Further, the “Amylase Release, analog Alone (10 μM)” value in test [3] is on record as 3 ± 1 % total. The “Amylase Release, analog Plus Bn (0.3 nM)” value in test [3] is reported as 16 ± 1 % total. Further, the concentration for half-maximal inhibition (IC50) in test [3] was over 10000 nM; in test [8] (setting [9]), 4.41 ± 0.451 µM. For the same molecule, the “[3H]IP, analog Alone (10 μM)” value in test [8] is on record as 8 ± 2 dym × 10^3. The “[3H]IP, analog Plus NMB (3 nM)” value in test [8] is reported as 28 ± 6 dym × 10^3.
